These are literature values, as cited in US20160244831A9, “Genetic Alterations Associated with Autism and the Autistic Phenotype and Methods of Use Thereof for the Diagnosis and Treatment of Autism” (The Children's Hospital of Philadelphia, priority 2011, published 2016).

For series [1] the following is noted: individuals exposed between days 24-28 post-fertilization.
The conditions of series [2]: at levels that are highly teratogenic in humans.

As for `CCCC(CCC)C(=O)O` [Valproate, Valproic acid], the “expression of RANBP1 mRNA” value with RANBP1 mRNA is listed as “decreased expression”.

With `O=C1CCC(N2C(=O)c3ccccc3C2=O)C(=O)N1` (stereo not shown) [Thalidomide], the “rate of ASD” value in series [1] was 27%. Besides, the “expression of RANBP1 mRNA” value with RANBP1 mRNA is recorded as “decreased expression”. For the same compound, the teratogenicity in animals result in series [2] is “lack of teratogenicity”.
